Assay results: patent publication US20250052985A1, “SYSTEM AND METHOD FOR QUANTITATIVE PHASE IMAGING FOR MULTI-PARAMETRIC SCREENING OF TUMOR THERAPY RESPONSE” (UNIVERSITY OF UTAH RESEARCH FOUNDATION, priority 2023, published 2025)
Several values for one entry are separate records, joined by “and”; a condition that tells them apart may be missing. Equal values may be shown once. Read-outs that look alike come from different tables or passages of the source.

Legend:
MDA-MB-231 cells = experiment: Quantitative phase imaging (QPI) growth response, MDA-MB-231; format: cell-based; design: DoR QPI: scale not given here; ToR 20 μM: unit not given here; conditions: for Max Asymptote / Min Asymptote: MDA-MB-231, 4-parameter Hill fit of mean SGR vs concentration, one line per replicate; for DoR QPI: depth of response; for ToR 20 μM: time of response at 20 μM; for SGR (specific growth rate) / tD: one individual MDA-MB-231 cell, 2 μM doxorubicin
Source text: In some embodiments, breast cancer cell lines are imaged, representing diverse clinical subtypes, summarized in Table 2 below, using a QPI microscope (FIG. 1A) based on differential phase contrast (DPC) microscopy and phase reconstruction via a QPI microscope system. DPC is used for image acquisition and phase reconstruction because DPC's flexible design may be customized for high throughput phase measurements. […] As illustrated in the embodiment of FIG. 1A, a QPI microscope system 100 conducts assays in a 96-well plate (e.g., a well-plate 105) with 6-point dose response curves and up to five therapies in triplicate including solvent controls, summarized in Table 4 below. As described below, in reference to FIG. 1A, a growth response of cells is measured noninvasively using QPI via a QPI microscope system 110 before being assayed using a CTG reader 115.
FIG. 1B illustrates a timeline plot 200 showing two plates (e.g., two, separate well-plates 105) set up in parallel to measure cell viability. With reference to FIG. 1B, two plates are set-up simultaneously for each experiment. A first plate 205 is incubated for 27 hours (h) post drug exposure prior to CTG analysis (3 h equilibration+24 h of imaging), which measures cell adenosine triphosphate (ATP) content as a surrogate for cell viability. A second plate 210 is imaged for 72 h after 3 h equilibration (e.g., 75 h) and followed by CTG. […] The imaging locations are imaged for 72 h, as shown by images 1700-1715 of FIG. 7.
In some embodiments, a dose-dependent change in growth, as indicated by a change in the rate of mass accumulation or loss, is a parameter that can be extracted from QPI dose-response data. […] Individual specific growth rate measurements are indicated by points in the distribution of the graph 1200 of FIG. 2A. Blue is indicative of the DMSO control and red is indicative of doxorubicin. The black outline is a kernel density function fit to the distribution of specific growth rates for each condition (e.g., *p<0.05, **p<0.01). In some embodiments, the average SGR of each condition is fit to a sigmoid dose-response curve using a Hill equation. For example, computed logistic fit parameters using a 4-parameter Hill model via the QPI microscope system 110 for all conditions are summarized in Tables 5-8 below. To determine if there is a response, as illustrated by FIG. 2B, the QPI microscope system 110 tests goodness of fit, adjusts for degrees of freedom using an F-test at significance p<0.01 by comparison to a flat line, as an indicator of no response. For cases with a better fit to the Hill equation, the 4-parameter Hill curve may be used by the QPI microscope system 110 to determine the EC50, a measure of sensitivity to therapy because it represents the effective concentration at which 50% of the cells respond to therapy, as illustrated by FIG. 10. […] A 4-parameter Hill curve is fit to each dose response plot to extract the depth of response and EC50 for each cell/drug pair. A flat line represents no response due to failure of the F-test to reject the null hypothesis that the logistic fit is indistinguishable from a flat line. […] Each color indicates a different drug or therapy used.

HCI-037 PDxO cells = experiment: QPI on cells from patient-derived organoid HCI-037 (primary lesion); format: cell-based; conditions: HCI-037, 48 h imaging, 3-parameter Hill model
Protocol: In some embodiments, the QPI microscope system 110 performs QPI on cells from patient-derived organoids and direct-from-patient samples. For example, the electronic controller 155 analyzes data on cells from a set of 5 organoids representing samples collected from two patients, as illustrated by a workflow 3400 in FIG. 24. The workflow 3400 is an experiment workflow illustrating how assays are analyzed by the QPI microscope system 110. In some embodiments, the QPI microscope system 110 images cells for 48 h, and uses an automatic segmentation algorithm, via the electronic controller 155, to identify individual cells from background, as shown in images 3405 and 3410 of FIG. 24. […] The electronic controller 155 determines the mass of each cell by summing the cell mass over the segmented area. In some embodiments, plots of mass over time reveal single cell growth rates, as shown by graph 3415 of FIG. 24. The graph 3415 is a mass vs. time plot showing DMSO treated cells growing cells at a typical location. Cells outlined in green are shown as green on the plot, other growing cells are shown in purple. The electronic controller 155 determine the specific growth rate (SGR) by fitting a line to time-series mass measurements and normalizing by an initial mass predicted by the fit to account for the effect of cell size on growth rate. The electronic controller 155 fits SGR as a function of dose to a sigmoidal dose response curve using a 3-parameter Hill model to extract dose response measurements, as shown by graph 3420 of FIG. 24. […] In some embodiments, EC50 measured by the QPI microscope system 110 is strongly concordant with gold standard techniques such as CTG over 27 conditions (e.g., 9 compounds, 3 breast cancer cell lines). […] As with cell line data, QPI data on cells from PDxO resolves differences in temporal dynamics of response to therapy, as shown in graph 3425 of FIG. 24. […] In some embodiments, the electronic controller 155 is configured to determine a drug response of each of the plurality of treatment samples from patient derived organoids.
The graphs 3500 includes graph A of the graphs 3500 showing normalized mass vs. time for HCI-037 (primary), HCI-038 (metastatic), and HCI-039 (pleural effusion) showing reduction in growth as concentration increases. Graphs B, C, D, and E of the graphs 3500 show dose response plots showing the differential response between different disease models. Graphs F, G, H, and I of the graphs 3500 show Hellinger distance vs. time plots showing the time of response for the different models treated with various therapies. In some embodiments, HCI-037, HCI-038, and HCI-039, PDxO models are used that are derived from primary lesion, bone metastasis, and pleural effusion, respectively, at different time points from a single patient during the course of treatment and progressive disease. In some embodiments, the electronic controller 155 is configured to determine a difference drug response from patient derived organoids. In some embodiments, the patient derived organoids are tumor organoids.

[1] = 72 h QPI, MDA-MB-231, Hill fit, EC50 in μM per Table 1
[2] = MDA-MB-231, highest concentration, FIG. 21 F
[3] = Homo sapiens, MDA-MB-231, 24 h, 24 h QPI, MDA-MB-231, Hill fit, EC50 in μM per Table 1, read-out: log10(EC50) (converted)
[4] = Homo sapiens, MDA-MB-231, 72 h, 72 h QPI, MDA-MB-231, Hill fit, EC50 in μM per Table 1, read-out: log10(EC50) (converted)
[5] = Homo sapiens, MDA-MB-231, MDA-MB-231 cell line, QPI growth rate, read-out: EC50, QPI
[6] = Homo sapiens, MDA-MB-231, MDA-MB-231 cell line, EC50 of the standard deviation, read-out: EC50, SD (converted)

SMILES | Max Asymptote (MDA-MB-231 cells; 24 h QPI) | Min Asymptote (MDA-MB-231 cells; 24 h QPI) | Max Asymptote (MDA-MB-231 cells; 72 h QPI) | Min Asymptote (MDA-MB-231 cells; 72 h QPI) | Hill Slope (MDA-MB-231 cells; 72 h QPI, MDA-MB-231, Hill fit) | log10(EC50) (MDA-MB-231 cells; [1]) | growth rate and heterogeneity over time (MDA-MB-231 cells; [2]) | DoR QPI (MDA-MB-231 cells; MDA-MB-231 cell line) | ToR 20 μM (MDA-MB-231 cells; MDA-MB-231 cell line) | dose response (SGR vs dose) (HCI-037 PDxO cells) | Hill Slope (MDA-MB-231 cells; 24 h QPI, MDA-MB-231, Hill fit) | EC50 (MDA-MB-231 cells; [3]) | EC50 (MDA-MB-231 cells; [4]) | EC50 (MDA-MB-231 cells; [5]) | EC50 (MDA-MB-231 cells; [6]) | further results
CCC(=C(c1ccc(O)cc1)c1ccc(OCCN(C)C)cc1)c1ccccc1 [4HT, 4-hydroxy-Tamoxifen] | 0.02875 and 0.03107 and 0.03303 | 0.007676 and 0.007611 and −0.003024 | −0.006134 and −0.01506 and −0.008455 | 0.02885 and 0.03029 and 0.03246 | 2.0951 and 2.4347 and 1.6101 | −1.2344 and −1.2249 and −1.0505 | first decreases in growth rate and then decreases in heterogeneity | 1.3 | 1.0 | strong response |  |  |  |  |  | log10(EC50) (MDA-MB-231 cells; 24 h QPI, MDA-MB-231, Hill fit, EC50 in μM per Table 1): −1.2332 and −1.2248 and −1.2436; mean SGR vs SD of growth parameterized by time (MDA-MB-231 cells; MDA-MB-231, maximal concentration, FIG. 5D): reduction in growth rate before heterogeneity is affected; EC50 (MDA-MB-231 cells; MDA-MB-231 cell line, QPI growth rate, read-out: EC50, QPI): 15.1 µM
O=c1[nH]cc(F)c(=O)[nH]1 [5FU, 5-Fluorouracil] | 0.03336 | 0.01996 | −0.009666 | 0.03351 | 0.4483 |  |  | 1.2 | 15.2 |  | 0.341 | 17.4 µM | 118 µM | 118 µM |  | 
CC(=O)O[C@@]12CO[C@@H]1C[C@H](O)[C@@]1(C)C(=O)[C@H](O)C3=C(C)[C@@H](OC(=O)[C@H](O)[C@@H](NC(=O)OC(C)(C)C)c4ccccc4)C[C@@](O)([C@@H](OC(=O)c4ccccc4)[C@H]21)C3(C)C [Docetaxel] | 0.03347 and 0.03066 and 0.02364 | 0.01673 and 0.01578 and 0.02364 | 0.01382 and 0.01017 and 0.02742 | 0.04028 and 0.02962 and 0.02742 |  |  |  | 0.7 | 3.5 |  |  |  |  |  | 0.00111 µM | growth rate and heterogeneity over time (MDA-MB-231 cells; MDA-MB-231): decrease in growth rate and heterogeneity simultaneously; growth rate and heterogeneity over time (MDA-MB-231 cells; MDA-MB-231, 0.4 μM): decrease in growth rate and heterogeneity simultaneously; growth rate and heterogeneity over time (MDA-MB-231 cells; MDA-MB-231, 2 μM): decrease in growth rate and heterogeneity simultaneously; SGR distribution over 72 h (MDA-MB-231 cells; MDA-MB-231, 20 μM): distinctive long tail of non-responders that persists at 72 h; growth rate and heterogeneity over time (MDA-MB-231 cells; MDA-MB-231, 20 μM): decrease in growth rate and heterogeneity simultaneously; growth rate and heterogeneity over time (MDA-MB-231 cells; MDA-MB-231, lowest concentrations, FIG. 21 G-H): growth rate decreases over time with little change in heterogeneity
COc1cccc2c1C(=O)c1c(O)c3c(c(O)c1C2=O)C[C@@](O)(C(=O)CO)C[C@@H]3O[C@H]1C[C@H](N)[C@H](O)[C@H](C)O1 [Doxorubicin] | 0.03123 and 0.03492 and 0.03444 | 0.002229 and 0.006476 and 0.003476 | 0.0002323 and 0.002183 | 0.03291 and 0.03136 | 0.9982 and 1.1886 | 1.0414 | simultaneously decreases in growth rate and heterogeneity | 1.0 | −3.0 | strong response | 1.1528 and 1.2328 and 1.1155 |  | 0.0794 µM | 0.1 µM | 0.549 µM | Hellinger distance of SGR distribution from control (MDA-MB-231 cells; MDA-MB-231, 0.08 μM): greater than the threshold indicating a response; Hellinger distance of SGR distribution from control (MDA-MB-231 cells; MDA-MB-231, 0.4 μM): much greater Hellinger distance from the control; reduction of heterogeneity (SD of growth rates) (MDA-MB-231 cells; MDA-MB-231, 20 μM, 72 h): fourfold; growth rate and heterogeneity over time (MDA-MB-231 cells; MDA-MB-231, middle concentrations, FIG. 21 C-E): change in growth rate over time with little to no change in heterogeneity; SGR (specific growth rate) (MDA-MB-231 cells; abrupt decrease in mass during cell death): -0.217 h⁻¹; tD (MDA-MB-231 cells; first 10 h): 19 h; SGR (specific growth rate) (MDA-MB-231 cells; first 10 h, robust growth): 0.0358 h⁻¹; tD (MDA-MB-231 cells; next 26 h): 66 h; SGR (specific growth rate) (MDA-MB-231 cells; next 26 h, reduced growth): 0.0105 h⁻¹; SGR (specific growth rate) (MDA-MB-231 cells; subsequent gradual loss of mass): -0.0033 h⁻¹
C[C@]12CC[C@@H]3c4ccc(O)cc4C[C@@H](CCCCCCCCC[S+]([O-])CCCC(F)(F)C(F)(F)F)[C@H]3[C@@H]1CC[C@@H]2O (stereo partly drawn) [Fulvestrant] | 0.02847 | 0.02401 | 0.01423 and 0.00907 | 0.02796 and 0.03032 | 1.492 and 0.9134 |  |  | 0.6 | 14.4 |  | 2.2482 | 3.43 µM |  | 11.4 µM | 3.32 µM | 
CC(=O)c1c(C)c2cnc(Nc3ccc(N4CCNCC4)cn3)nc2n(C2CCCC2)c1=O [Palbociclib] | 0.03459 and 0.03302 and 0.02322 | 0.004781 and −0.01622 and 0.01166 | −2.92E−05 and 0.006396 and 0.007784 | 0.03469 and 0.03153 and 0.02663 |  |  |  | 0.6 | 1.6 |  |  |  |  |  |  | 
